“And” between values parts separate entries of the source, which are not always exact repeats. Identical values can stand only once.

The test system of data set [1] is small intestines (jejunum and ileum) and large intestines (cecum and colon) mucous membrane specimen. The data set can be described thus: Zinc absorption in Ussing chamber. Also noted: species or system rat. The settings on record: DFA III 0 to 100 mM, FIG. 2.
Data set [2] relates to Streptococcus mutans MT 8148. Put plainly: Acid production by Streptococcus mutans, DFA and palatinose (Example 10), strain MT 8148. The format is cell-based. The settings on record: 10 ml of 1% solution added to 2 ml cell suspension, 37° C., FIG. 7. How it is done:
(§1) Dental caries causative bacteria (Streptococcus mutans) MT 8148 and 6715 strains provided by a microbial lineage storage laboratory of The Institute of Physical Chemical Research (Riken) were cultured on a brain heart infusion broth medium overnight and then cells were collected by centrifugation. The cells were washed twice with a phosphate buffered (5 mM) physiological saline solution (pH 7.0) and then suspended in the same saline solution. Ten milliliters each of a 1% palatinose solution, 1% DFA III, a 1% palatinose solution with 1% DFA III added were added to 2 ml of this concentrated cell suspension. Immediately, reaction was carried out at 37° C. and then change with time in pH of each reaction mixture was measured.

Data set [3] in a line: Diuretic test using DFA III. The format is in vivo, human. The source says: DFA III was made into granules to make a granular food product. Since granulation was possible without excipient, the DFA content was 100%. Six healthy males were given with 1 g/day of this granular food product together with water consecutively for 1 week in the first period of the test. Then, after a week of the washout period, the same 6 healthy subjects were given with 1 g/day of sugar together with water consecutively for 1 week in the second period of the test.
During the test periods, all subjects lived under the same environment, doing the same level of exercise and taking the same amount of diet and drinking water. The whole volume of urine excreted during the test periods was recovered and the volume was measured to obtain a daily average urine volume to compare the two test periods.

The nature of data set [4]: Effectiveness on defecation in human. Format: in vivo. The settings on record: 3 g once a day for one month; for Feeling of defecation: Much better (number of subjects) / Feeling of defecation: No change (number of subjects) / Feeling of defecation: Slightly better (number of subjects) / Feeling of defecation: Slightly worse (number of subjects) / Feeling of defecation: Worse (number of subjects) / Stool properties, change observed: Constipation (worse after ingestion; number of subjects) / Stool properties, change observed: Normal stool (number of subjects) / Stool properties, change observed: Soft stool (number of subjects) / Stool properties, change observed: Solid stool (number of subjects) / Stool properties: No change (number of subjects): fifty adults; for Stool properties, change observed: Diarrhea (number of subjects): fifty adults with tendency of constipation. How it is done: Fifty adults who were healthy but aware of their poor stool frequency and tendency of constipation were given with 3 g of DFA III, 3 g of melibiose or 3 g of placebo (starch) once a day for one month. The defecation condition was recorded and stool properties and feeling of defecation were studied.

The subject of data set [5] is small intestines (jejunum and ileum) and large intestines (cecum and colon) mucous membrane specimen. Put plainly: Copper absorption in Ussing chamber. Set-up: species or system rat. The settings on record: DFA III 0 to 100 mM, FIG. 3.
Data set [6] has as its system serum osteocalcin. Put plainly: Bone formation in human: serum osteocalcin, DFA III alone (Example 6). Format: in vivo. The settings on record: 3 g DFA III 3 times a day for 2 weeks. How it is done: Twenty-three healthy adult males and females on normal diet were administered with 3 g of DFA III 3 times a day for 2 weeks to study the change in serum osteocalcin concentration.

In data set [7] the test system is small intestines (jejunum and ileum) and large intestines (cecum and colon) mucous membrane specimen. Put plainly: Magnesium absorption in Ussing chamber. Also noted: species or system rat. The settings on record: DFA III 0, 1, 10, 100 mM on mucous membrane side, 37° C., 30 minutes, FIG. 1. How it is done:
Acceleration of magnesium absorption by DFA III was confirmed by using an Ussing chamber as follows.
In this experiment, 7 to 8 weeks old Sprague-Dawley male rats (with an average body weight of about 260 g) were used.
The rats were purchased at 6 weeks of age (Japan SLC) and fed on a commercial solid feed (CE-2, Japan CLEA) until the start of the experiment.
On the day of the experiment, rats were injected intraperitoneally with sodium pentobarbital and the small intestines (cejunum and ileum) and the large intestines (cecum and colon) were extracted under the anaesthetization. Contents of each of the intestines were removed, the intestines were opened, and the serous membrane and the layer of smooth muscle were peeled off to prepare a specimen comprising the mucous membrane and submucosal tissue, which was then loaded onto an Ussing chamber (with an effective area of 0.67 cm^2).
Separately, a buffer solution for the mucous membrane side and a buffer solution for serous membrane side were prepared. The buffer solution for mucous membrane side was basically comprised of the following ingredients. […]
After the incubation was completed, the solution of serous membrane side was recovered and the Mg concentration in the solution was measured using a commercial kit (Wako Pure Chemicals). […]

In data set [8] the test system is mice. The data set can be described thus: Acute toxicity test in mice. The format is in vivo. The settings on record: 10 days, 1000 mg/kg of oral administration. An excerpt: Further, DFA, an effective component of the invention, has no problem in its safety.
For data set [9], the system named is serum osteocalcin. Put plainly: Bone formation in human: serum osteocalcin, DFA III with calcium lactate (Example 4). The settings on record: 3 g DFA III and 0.77 g calcium lactate 3 times a day for 1 week vs calcium lactate alone; six healthy adult males; FIG. 4. Format: in vivo. How it is done:
Six healthy adult males were administered with 3 g of DFA III and 0.77 g of calcium lactate or 0.77 g of placebo (calcium lactate) 3 times a day for 1 week to study the change in serum osteocalcin concentration.

For data set [10], the system named is serum osteocalcin. Put plainly: Bone formation in human: serum osteocalcin, DFA III with calcium carbonate (Example 5). Format: in vivo. The settings on record: 1 g DFA III and 0.25 g calcium carbonate 3 times a day for 2 weeks vs calcium carbonate alone; fourteen healthy adult males; FIG. 5. How it is done: Fourteen healthy adult males were administered with 1 g of DFA III and 0.25 g of calcium carbonate or 0.25 g of placebo (calcium carbonate) 3 times a day for 2 weeks to study the change in serum osteocalcin concentration.

The test system of data set [11] is Streptococcus mutans MT 8148. Put plainly: Acid production by Streptococcus mutans (Example 9), strain MT 8148. The settings on record: 10 ml of 5% solution added to 2 ml cell suspension, 37° C., FIG. 6. Format: cell-based. How it is done: as §1, with “5%” for “a 1% palatinose solution, 1%”, “sorbitol, palatinose, xylitol, and sucrose solutions” for “a 1% palatinose solution with 1% DFA III added”

As to `OC[C@H]1O[C@@]2(CO[C@]3(CO)O[C@H](CO)[C@@H](O)[C@@H]3O2)[C@@H](O)[C@@H]1O` [DFA III, difructose anhydride III], in data set [1], the “Zn absorption (net rate, mucous to serous membrane side)” value is “evidently increased”. For the same compound, the “acid production (change with time in pH of reaction mixture)” value in data set [2] was “almost no acid was produced”. Further, the “Average daily urine volume” value in data set [3] (1 g/day DFA III granular food product with water for 1 week, individual subjects A-F, healthy males) is 2600 mL and 2950 mL and 2560 mL and 2850 mL and 3010 mL and 2050 mL. Besides, in [3] (1 g/day for 1 week), the abnormal subjective findings result is “no abnormal subjective findings”. The “average daily urine volume, first vs second test period” value in data set [3] (all individual subjects, DFA III 1 g/day vs sugar 1 g/day) is on record as “evidently greater”. Besides, the “biochemical blood tests (liver function, renal function, blood pressure, blood cell counts, total Chol, TG)” value in [3] (first test period (DFA III) vs second test period (sugar)) was “the same”. In [4], the “Feeling of defecation: Much better (number of subjects)” value is listed as 23, the “Feeling of defecation: No change (number of subjects)” value came out at 0, the “Feeling of defecation: Slightly better (number of subjects)” value is 27 and the “Feeling of defecation: Slightly worse (number of subjects)” value was 0. Also, in data set [4], the “Feeling of defecation: Worse (number of subjects)” value is given as 0; the “Stool properties, change observed: Constipation (worse after ingestion; number of subjects)” value came out at 0; the “Stool properties, change observed: Normal stool (number of subjects)” value is on record as 39; the “Stool properties, change observed: Soft stool (number of subjects)” value came out at 7. Besides, in data set [4], the “Stool properties, change observed: Solid stool (number of subjects)” value amounted to 3; the “Stool properties: No change (number of subjects)” value came out at 0; the “Stool properties, change observed: Diarrhea (number of subjects)” value is 0. Moreover, the “Cu absorption (net rate, mucous to serous membrane side)” value in data set [5] is on record as “evidently increased”. The “level of osteocalcin, change by ingestion” value in data set [6] (no added calcium) was “increased”. In addition, the “Serum osteocalcin concentration, After ingestion” value in data set [6] (23 healthy adults on normal diet, Average ± SD) was 5.7 ± 1.5 ng/mL. Also, the “Serum osteocalcin concentration, Before ingestion” value in data set [6] (23 healthy adults on normal diet, Average ± SD, *p < 0.1) is 7.0 ± 2.0* ng/ml. In addition, the “Mg absorption (net rate, mucous to serous membrane side)” value in data set [7] is listed as “evidently increased”. For the same compound, the “acute toxicity (death)” value in data set [8] is “no death”. Moreover, the “level of osteocalcin (serum), change” value in data set [9] is given as “increased more”. The “level of osteocalcin (serum), change” value in [10] is listed as “increased more”. Also, the “acid production (change with time in pH of reaction mixture)” value in data set [11] was “almost no acid”.

In the case of `OC[C@H]1O[C@H](OCC2O[C@@H](O)[C@H](O)[C@@H](O)[C@@H]2O)[C@H](O)[C@@H](O)[C@H]1O` (stereo partly shown) [melibiose], in data set [4], the “Feeling of defecation: Much better (number of subjects)” value stood at 22, the “Feeling of defecation: No change (number of subjects)” value is 0, the “Feeling of defecation: Slightly better (number of subjects)” value is given as 28 and the “Feeling of defecation: Slightly worse (number of subjects)” value worked out at 0. In data set [4], the “Feeling of defecation: Worse (number of subjects)” value came out at 0; the “Stool properties, change observed: Constipation (worse after ingestion; number of subjects)” value was determined as 0; the “Stool properties, change observed: Normal stool (number of subjects)” value is listed as 40; the “Stool properties, change observed: Soft stool (number of subjects)” value turned out to be 8. Further, in data set [4], the “Stool properties, change observed: Solid stool (number of subjects)” value is recorded as 2; the “Stool properties: No change (number of subjects)” value turned out to be 0; the “Stool properties, change observed: Diarrhea (number of subjects)” value amounted to 0.

`OC[C@H]1O[C@H](OC[C@H]2OC(O)(CO)[C@@H](O)[C@@H]2O)[C@H](O)[C@@H](O)[C@@H]1O` (stereo partly shown) [palatinose, reference compound]: the “acid production (change with time in pH of reaction mixture)” value is given as “acid was produced” in data set [2] and “almost no acid” in data set [11].

Consider `OC[C@@H](O)[C@@H](O)[C@H](O)[C@@H](O)CO` [sorbitol], for which, in data set [11], the “acid production (change with time in pH of reaction mixture)” value is listed as “almost no acid”.

For `OC[C@H]1O[C@@](CO)(O[C@H]2O[C@H](CO)[C@@H](O)[C@H](O)[C@H]2O)[C@@H](O)[C@@H]1O` [sucrose], the “acid production (change with time in pH of reaction mixture)” value in data set [11] was “evidently lowered the pH”.

With `OC[C@H]1O[C@@](CO)(O[C@H]2O[C@H](CO)[C@@H](O)[C@H](O)[C@H]2O)[C@@H](O)[C@@H]1O` [sugar, reference compound], in [3] (1 g/day sugar with water for 1 week after 1 week washout, same subjects A-F), the “Average daily urine volume” value is 1620 mL and 1760 mL and 1650 mL and 1250 mL and 1850 mL and 1520 mL.

In the case of `OC[C@@H](O)[C@H](O)[C@@H](O)CO` [xylitol], the “acid production (change with time in pH of reaction mixture)” value in [11] is “almost no acid”.

The values are drawn from patent US7754701B2, “Difructose anhydride-containing composition and use thereof” (Fancl Corporation, priority 2002, dated 2010).
